# Measurements published in PubChem BioAssay AID330 (DTP/NCI, 2004).
# Where “and” joins values, the source holds several entries; their conditions need not be identical. Equal entries are not always repeated. Inconclusive results and toxic doses are left out. Peptide text beside a SMILES is read from it. * marks the point of attachment. Cbz = O=C(OCc1ccccc1)*; Bn = c1ccc(C*)cc1
# System: P388 leukemia ip, CD2F1 mice, survival T/C
# Experiment: NCI In Vivo Anticancer Drug Screen. Data for tumor model P388 Leukemia (intraperitoneal) in CD2F1 (CDF1) mice
# Details: endpoint: median survival time, higher = longer survival
# How it was run: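 Mice carrying the transplanted tumor received test compound or vehicle. Survival was recorded in each group, and the value is the treated-group measurement divided by that of the vehicle-treated control group.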
# [1] = dose: 6.25 mg/kg/injection, schedule: Q01DX005 (ip), vehicle: Klucel (hydroxypropylcellulose) (HPC)
# [2] = dose: 12.5 mg/kg/injection, schedule: Q01DX005 (ip), vehicle: Klucel (hydroxypropylcellulose) (HPC)
# [3] = dose: 50.0 mg/kg/injection, schedule: Q01DX005 (ip), vehicle: saline with Tween-80
# [4] = dose: 100.0 mg/kg/injection, schedule: Q01DX005 (ip), vehicle: saline with Tween-80
# [5] = dose: 200.0 mg/kg/injection, schedule: Q01DX005 (ip), vehicle: saline with Tween-80
# [6] = dose: 100.0 mg/kg/injection, schedule: Q04DX002 (ip), vehicle: saline with Tween-80
# [7] = dose: 200.0 mg/kg/injection, schedule: Q04DX002 (ip), vehicle: saline with Tween-80
# [8] = dose: 60.0 mg/kg/injection, schedule: Q01DX005 (ip), vehicle: saline with Tween-80
# [9] = dose: 120.0 mg/kg/injection, schedule: Q01DX005 (ip), vehicle: saline with Tween-80
# [10] = dose: 2.0 mg/kg/injection, schedule: Q01DX009 (ip), vehicle: Klucel (hydroxypropylcellulose) (HPC)
smiles,measurement,setting,value
CC(C)CC(NC(=O)C(CSCc1ccccc1)NC(=O)OCc1ccccc1)C(N)=O (stereo unspecified) (Cbz-Cys(Bn)-Leu-NH2; configuration not given here),T/C,[1],102 % of control
same,T/C,[2],86 % of control
same,T/C,"dose: 25.0 mg/kg/injection, schedule: Q01DX005 (ip), vehicle: Klucel (hydroxypropylcellulose) (HPC)",86 % of control
[NH-]C(CO)C(=O)O.[NH-]C(CO)C(=O)O.[Pd+2] (stereo unspecified),T/C,"dose: 3.13 mg/kg/injection, schedule: Q04DX003 (ip), vehicle: water",103 % of control
same,T/C,"dose: 6.25 mg/kg/injection, schedule: Q04DX003 (ip), vehicle: water",100 % of control
same,T/C,"dose: 12.5 mg/kg/injection, schedule: Q01DX009 (ip), vehicle: acid diluted with saline",108 % of control
same,T/C,"dose: 12.5 mg/kg/injection, schedule: Q01DX009 (ip), vehicle: water",104 % of control and 113 % of control
same,T/C,"dose: 12.5 mg/kg/injection, schedule: Q04DX003 (ip), vehicle: water",97 % of control
same,T/C,"dose: 25.0 mg/kg/injection, schedule: Q01DX009 (ip), vehicle: acid diluted with saline",109 % of control
same,T/C,"dose: 25.0 mg/kg/injection, schedule: Q01DX009 (ip), vehicle: water",108 % of control and 109 % of control
same,T/C,"dose: 25.0 mg/kg/injection, schedule: Q04DX003 (ip), vehicle: water",103 % of control
same,T/C,"dose: 50.0 mg/kg/injection, schedule: Q01DX009 (ip), vehicle: acid diluted with saline",113 % of control
same,T/C,"dose: 50.0 mg/kg/injection, schedule: Q01DX009 (ip), vehicle: water",104 % of control and 117 % of control
same,T/C,"dose: 50.0 mg/kg/injection, schedule: Q04DX003 (ip), vehicle: water",117 % of control
same,T/C,"dose: 100.0 mg/kg/injection, schedule: Q01DX009 (ip), vehicle: acid diluted with saline",104 % of control
same,T/C,"dose: 100.0 mg/kg/injection, schedule: Q01DX009 (ip), vehicle: water",86 % of control
same,T/C,"dose: 100.0 mg/kg/injection, schedule: Q04DX003 (ip), vehicle: water",106 % of control
C/C=C(\C)C(=O)OC1C2C(C)=CC(=O)C(O)C2(C)C2C3(O)OCC24C1OC(=O)C(O)C4C(C)C3O (stereo unspecified),T/C,"dose: 2.5 mg/kg/injection, schedule: Q01DX005 (ip), vehicle: saline",154 % of control
same,T/C,"dose: 7.5 mg/kg/injection, schedule: Q01DX005 (ip), vehicle: Klucel (hydroxypropylcellulose) (HPC)",175 % of control
same,T/C,"dose: 10.0 mg/kg/injection, schedule: Q01DX005 (ip), vehicle: saline",154 % of control
same,T/C,"dose: 15.0 mg/kg/injection, schedule: Q01DX005 (ip), vehicle: Klucel (hydroxypropylcellulose) (HPC)",180 % of control
same,T/C,"dose: 15.0 mg/kg/injection, schedule: Q01DX005 (ip), vehicle: saline",154 % of control
same,T/C,"dose: 30.0 mg/kg/injection, schedule: Q01DX005 (ip), vehicle: Klucel (hydroxypropylcellulose) (HPC)",189 % of control
CC(=NC1CCCCC1)c1c(O)oc(C=Nc2ccccc2)c1O,T/C,[3],100 % of control
same,T/C,[4],105 % of control
same,T/C,[5],100 % of control
O=c1c2[nH]c3ccccc3sc=2c(=O)n1-c1cccc(C(F)(F)F)c1,T/C,[3],104 % of control
same,T/C,[4],100 % of control
same,T/C,[5],101 % of control
COC1C(CN(C)N=Nc2ccccc2C(N)=O)OC2OC(C)(C)OC21 (stereo unspecified),T/C,[6],94 % of control
same,T/C,[7],91 % of control
same,T/C,"dose: 400.0 mg/kg/injection, schedule: Q04DX002 (ip), vehicle: saline with Tween-80",91 % of control
N#CC(C(=O)C(=O)Nc1ccc(Cl)c(Cl)c1)c1ccccc1 (stereo unspecified),T/C,[8],100 % of control
same,T/C,[9],99 % of control
CCCOC(=O)CCCC1=NC2=CC=CC3=NC(C)=NC(=N1)N23,T/C,"dose: 25.0 mg/kg/injection, schedule: Q01DX009 (ip), vehicle: saline with Tween-80",107 % of control
same,T/C,"dose: 50.0 mg/kg/injection, schedule: Q01DX009 (ip), vehicle: saline with Tween-80",104 % of control
same,T/C,"dose: 100.0 mg/kg/injection, schedule: Q01DX009 (ip), vehicle: saline with Tween-80",104 % of control
CCn1c(C)nc2ncn(-c3ccccc3)c2c1=O,T/C,"dose: 50.0 mg/kg/injection, schedule: Q01DX005 (ip), vehicle: Klucel (hydroxypropylcellulose) (HPC)",100 % of control
same,T/C,"dose: 100.0 mg/kg/injection, schedule: Q01DX005 (ip), vehicle: Klucel (hydroxypropylcellulose) (HPC)",100 % of control
same,T/C,"dose: 200.0 mg/kg/injection, schedule: Q01DX005 (ip), vehicle: Klucel (hydroxypropylcellulose) (HPC)",98 % of control
C/C=C(\C)c1cc(=O)c2c(C)cc3c(c2o1)C(=O)c1c(O)c(C2CC(C)(N(C)C)C(O)C(C)O2)cc(C2CC(N(C)C)C(O)C(C)O2)c1C3=O (stereo unspecified),T/C,"dose: 0.31 mg/kg/injection, schedule: Q01DX009 (ip), vehicle: saline",100 % of control
same,T/C,"dose: 0.62 mg/kg/injection, schedule: Q01DX009 (ip), vehicle: saline",153 % of control
same,T/C,"dose: 1.25 mg/kg/injection, schedule: Q01DX009 (ip), vehicle: saline",91 % of control
same,T/C,[10],118 % of control
same,T/C,"dose: 2.0 mg/kg/injection, schedule: Q01DX009 (ip), vehicle: saline",154 % of control
same,T/C,"dose: 3.0 mg/kg/injection, schedule: Q01DX009 (ip), vehicle: saline",109 % of control
same,T/C,"dose: 5.0 mg/kg/injection, schedule: Q01DX009 (ip), vehicle: saline",94 % of control
same,T/C,"dose: 6.25 mg/kg/injection, schedule: Q01DX009 (ip), vehicle: saline with Tween-80",95 % of control
COc1cc(C2c3cc4c(cc3OC(C)(O)C2C(C)=O)OCO4)cc(OC)c1O (stereo unspecified),T/C,[8],95 % of control
same,T/C,[9],97 % of control
same,T/C,"dose: 240.0 mg/kg/injection, schedule: Q01DX005 (ip), vehicle: saline with Tween-80",90 % of control
CCc1c(CNc2ccc(Cl)c(Cl)c2)ccc2nc(N)nc(N)c12,T/C,[2],109 % of control
CCCCCCCCC(C(=O)N/N=C(\C)c1ccccc1)C(=O)N/N=C(\C)c1ccccc1,T/C,"dose: 50.0 mg/kg/injection, schedule: Q01DX009 (ip), vehicle: saline",101 % of control
same,T/C,"dose: 100.0 mg/kg/injection, schedule: Q01DX009 (ip), vehicle: saline",105 % of control
same,T/C,"dose: 200.0 mg/kg/injection, schedule: Q01DX009 (ip), vehicle: saline",100 % of control
CC[C@@H]1C[C@@H]2CN3CCc4c([nH]c5ccc(OC)cc45)C(COC(=O)c4ccc(OC)c(OC)c4)(C2)C13,T/C,"dose: 0.5 mg/kg/injection, schedule: Q01DX009 (ip), vehicle: Klucel (hydroxypropylcellulose) (HPC)",102 % of control
same,T/C,"dose: 1.0 mg/kg/injection, schedule: Q01DX009 (ip), vehicle: Klucel (hydroxypropylcellulose) (HPC)",104 % of control
same,T/C,[10],108 % of control
same,T/C,"dose: 4.0 mg/kg/injection, schedule: Q01DX009 (ip), vehicle: Klucel (hydroxypropylcellulose) (HPC)",102 % of control
O=c1c2cc3c(cc2c2cccc4c2n1CC4)OCO3,T/C,"dose: 25.0 mg/kg/injection, schedule: Q01DX009 (ip), vehicle: other",96 % of control
same,T/C,"dose: 50.0 mg/kg/injection, schedule: Q01DX009 (ip), vehicle: other",100 % of control
same,T/C,"dose: 100.0 mg/kg/injection, schedule: Q01DX009 (ip), vehicle: other",86 % of control
same,T/C,"dose: 200.0 mg/kg/injection, schedule: Q01DX009 (ip), vehicle: other",89 % of control
same,T/C,"dose: 400.0 mg/kg/injection, schedule: Q01DX009 (ip), vehicle: other",91 % of control
FC(F)(F)c1cccc(C(OCC2CO2)(C(F)(F)F)C(F)(F)F)c1 (stereo unspecified),T/C,"dose: 50.0 mg/kg/injection, schedule: Q01DX009 (ip), vehicle: Klucel (hydroxypropylcellulose) (HPC)",99 % of control
same,T/C,"dose: 100.0 mg/kg/injection, schedule: Q01DX009 (ip), vehicle: Klucel (hydroxypropylcellulose) (HPC)",96 % of control
same,T/C,"dose: 200.0 mg/kg/injection, schedule: Q01DX009 (ip), vehicle: Klucel (hydroxypropylcellulose) (HPC)",102 % of control
COC(=O)C12CCC(C(=O)OC)(CC1)n1c(=O)n(-c3ccccc3)c(=O)n12,T/C,[3],102 % of control
same,T/C,[4],102 % of control
same,T/C,[5],102 % of control
CC1C(=O)CCC2(C)CCC3C(OC(=O)C3(C)[Se]c3ccccc3)C12 (stereo unspecified),T/C,[6],97 % of control
same,T/C,[7],98 % of control
CN=C1C=CC(=C(c2ccc(N(C)C)cc2)c2ccc(N(C)C)cc2)C=C1,T/C,[1],119 % of control
CCC(C)C(NC(=O)C(Cc1cnc[nH]1)N(C(=O)OCc1ccccc1)C(=O)OCc1ccccc1)C(=O)OCc1ccccc1 (stereo unspecified),T/C,[3],100 % of control
same,T/C,[4],93 % of control
COc1c2occc2c(N=Cc2ccc([N+](=O)[O-])cc2)c2ccc(=O)oc12,T/C,"dose: 0.38 mg/kg/injection, schedule: Q01DX005 (ip), vehicle: saline with Tween-80",99 % of control
same,T/C,"dose: 0.75 mg/kg/injection, schedule: Q01DX005 (ip), vehicle: saline with Tween-80",98 % of control
same,T/C,"dose: 1.5 mg/kg/injection, schedule: Q01DX005 (ip), vehicle: saline with Tween-80",90 % of control
same,T/C,"dose: 6.25 mg/kg/injection, schedule: Q01DX005 (ip), vehicle: saline with Tween-80",87 % of control
same,T/C,[4],87 % of control
same,T/C,[5],98 % of control
